Data taken from article PMC7157763, “Synergy between Cell Surface Glycosidases and Glycan-Binding Proteins Dictates the Utilization of Specific Beta(1,3)-Glucans by Human Gut Bacteroides” (mBio, 2020).

What was measured:
BuSGBP-B = molecular target: T1, BuSGBP-B (Bacteroides uniformis, UniProt A0ABC9NE57); test: isothermal titration calorimetry; format: binding; conditions: 25 °C; single-site model
T1 construct: gene BACUNI_01487; signal peptide and lipidation Cys excluded; N-terminal His6 or His6-GST tag (pMCSG53 or pMCSG-GST); E. coli BL21(DE3)
T1 sequence (A0ABC9NE57 22-457): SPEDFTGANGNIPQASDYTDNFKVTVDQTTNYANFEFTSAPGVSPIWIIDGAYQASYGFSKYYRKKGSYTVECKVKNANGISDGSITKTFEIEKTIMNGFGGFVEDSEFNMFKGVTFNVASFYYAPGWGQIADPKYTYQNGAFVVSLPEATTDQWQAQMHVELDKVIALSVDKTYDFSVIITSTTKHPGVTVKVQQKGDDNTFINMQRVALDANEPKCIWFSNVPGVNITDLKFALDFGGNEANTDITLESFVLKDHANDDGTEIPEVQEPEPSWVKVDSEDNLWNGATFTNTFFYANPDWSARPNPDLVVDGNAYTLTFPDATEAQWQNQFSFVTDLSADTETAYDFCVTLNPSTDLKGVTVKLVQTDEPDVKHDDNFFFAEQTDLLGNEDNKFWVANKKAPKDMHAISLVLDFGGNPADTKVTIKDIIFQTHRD

BuGH3 [1] = molecular target: T2, BuGH3 (Bacteroides uniformis, UniProt A0ABC9NEJ2); test: continuous glucose release assay (hexokinase kit); format: biochemical; conditions: oligosaccharide hydrolysis, exo-acting
T2 construct: gene BACUNI_01484; signal peptide and lipidation Cys excluded; N-terminal His6 tag (pET28a); E. coli BL21(DE3)
T2 sequence (A0ABC9NEJ2 20-750): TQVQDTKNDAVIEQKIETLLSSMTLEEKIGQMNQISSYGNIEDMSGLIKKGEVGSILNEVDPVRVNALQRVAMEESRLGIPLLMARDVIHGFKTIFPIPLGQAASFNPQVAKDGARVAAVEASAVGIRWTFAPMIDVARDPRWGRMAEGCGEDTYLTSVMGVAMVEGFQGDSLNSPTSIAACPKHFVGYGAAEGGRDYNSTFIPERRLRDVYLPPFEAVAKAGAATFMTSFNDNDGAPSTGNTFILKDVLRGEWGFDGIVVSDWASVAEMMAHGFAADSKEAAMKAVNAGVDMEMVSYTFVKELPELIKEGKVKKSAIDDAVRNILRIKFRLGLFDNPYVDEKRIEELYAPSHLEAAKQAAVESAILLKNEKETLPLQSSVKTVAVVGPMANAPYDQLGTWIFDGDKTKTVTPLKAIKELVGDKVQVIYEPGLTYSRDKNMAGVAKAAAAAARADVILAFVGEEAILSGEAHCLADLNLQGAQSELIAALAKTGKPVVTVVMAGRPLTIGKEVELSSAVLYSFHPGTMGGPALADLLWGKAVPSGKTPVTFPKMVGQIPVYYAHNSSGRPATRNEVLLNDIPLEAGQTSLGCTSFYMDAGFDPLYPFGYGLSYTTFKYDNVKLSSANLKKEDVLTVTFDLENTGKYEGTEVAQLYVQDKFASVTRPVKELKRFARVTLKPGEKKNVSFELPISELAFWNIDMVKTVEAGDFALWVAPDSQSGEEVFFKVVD

BuGH3 [2] = molecular target: T2, BuGH3; test: continuous glucose release assay (hexokinase kit); format: biochemical; conditions: oligosaccharide hydrolysis, exo-acting; remark: listed apart in the source
BuGH158 = molecular target: T3, BuGH158 (Bacteroides uniformis, UniProt A0ABC9NDZ5); test: 1H-NMR of hydrolysis (anomer stereochemistry); format: biochemical; conditions: 50 mM sodium phosphate pH 7.0 in D2O; 20 μM enzyme, 10 mM substrate; retaining
T3 construct: gene BACUNI_01485; signal peptide and lipidation Cys excluded; N-terminal His6 tag (pMCSG53); E. coli BL21(DE3)
T3 sequence (A0ABC9NDZ5 19-429 limits assumed): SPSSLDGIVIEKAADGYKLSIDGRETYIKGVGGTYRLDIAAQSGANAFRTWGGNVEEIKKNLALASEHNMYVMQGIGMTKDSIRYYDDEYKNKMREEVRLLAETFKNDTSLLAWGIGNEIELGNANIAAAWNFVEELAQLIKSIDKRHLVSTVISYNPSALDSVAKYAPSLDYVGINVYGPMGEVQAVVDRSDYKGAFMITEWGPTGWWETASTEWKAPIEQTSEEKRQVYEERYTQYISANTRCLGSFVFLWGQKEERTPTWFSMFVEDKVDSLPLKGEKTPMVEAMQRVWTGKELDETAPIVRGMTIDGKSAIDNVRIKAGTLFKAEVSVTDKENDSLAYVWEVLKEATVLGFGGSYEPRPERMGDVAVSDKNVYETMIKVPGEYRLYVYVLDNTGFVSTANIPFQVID

Row | Compound | Ka (BuSGBP-B) | Km (BuGH3 [1]) | kcat/Km (BuGH3 [2]) | 1H-NMR of hydrolysis (anomer stereochemistry) (BuGH158)
1 | OC[C@H]1O[C@@H](O[C@@H]2[C@@H](O)[C@H](O[C@@H]3[C@@H](O)[C@H](O[C@@H]4[C@@H](O)[C@H](O[C@H]5[C@H](O)[C@@H](CO)OC(O)[C@@H]5O)O[C@H](CO)[C@H]4O)O[C@H](CO)[C@H]3O)O[C@H](CO)[C@H]2O)[C@H](O)[C@@H](O)[C@@H]1O (stereo partly shown) [G3G3G3G3G, laminaripentaose] | affinity increased with degree of polymerization | after which Km values leveled off | – | –
2 | OC[C@H]1O[C@@H](OC[C@H]2OC(O)[C@H](O)[C@@H](O)[C@@H]2O)[C@H](O)[C@@H](O)[C@@H]1O (stereo partly shown) [G6G, gentiobiose] | – | – | kcat/Km value for laminaribiose (G3G) over cellobiose (G4G) and gentiobiose (G6G) | –
3 | OC[C@H]1O[C@@H](O[C@H]2[C@H](O)[C@@H](CO)OC(O)[C@@H]2O)[C@H](O)[C@@H](O)[C@@H]1O (stereo partly shown) [G3G, laminaribiose] | – | Km values decreased between the di- and trisaccharide | – | –
4 | OC[C@H]1O[C@@H](O[C@H]2[C@H](O)[C@@H](O)C(O)O[C@@H]2CO)[C@H](O)[C@@H](O)[C@@H]1O (stereo partly shown) [G4G, cellobiose] | – | – | kcat/Km value for laminaribiose (G3G) over cellobiose (G4G) and gentiobiose (G6G) | –
5 | OC[C@H]1O[C@@H](O[C@@H]2[C@@H](O)[C@H](O[C@H]3[C@H](O)[C@@H](CO)OC(O)[C@@H]3O)O[C@H](CO)[C@H]2O)[C@H](O)[C@@H](O)[C@@H]1O (stereo partly shown) [G3G3G, laminaritriose] | The smallest laminari-oligosaccharide bound by BuSGBP-B was the trisaccharide (G3G3G) | Km values decreased between the di- and trisaccharide | – | –
6 | O=[N+]([O-])c1ccc(O[C@@H]2O[C@H](CO)[C@@H](O)[C@H](O[C@@H]3O[C@H](CO)[C@@H](O)[C@H](O)[C@H]3O)[C@H]2O)c(Cl)c1 [G3G-CNP, 2-chloro-4-nitrophenyl laminaribioside] | – | – | – | NMR analysis of the hydrolysis of 2-chloro-4-nitrophenyl laminaribioside (G3G-CNP)
7 | OC[C@H]1O[C@@H](O[C@@H]2[C@@H](O)[C@H](O[C@@H]3[C@@H](O)[C@H](O[C@H]4[C@H](O)[C@@H](CO)OC(O)[C@@H]4O)O[C@H](CO)[C@H]3O)O[C@H](CO)[C@H]2O)[C@H](O)[C@@H](O)[C@@H]1O (stereo partly shown) [G3G3G3G, laminaritetraose] | affinity increased with degree of polymerization | after which Km values leveled off | – | –
